Reference: patent publication US10131652B2, “Pyrimidinyloxy benzene derivatives as herbicides” (E. I. DU PONT DE NEMOURS AND COMPANY, priority 2014, dated 2018)

Assays:
Assay type in all cases: in vivo
[1] = test system: Italian ryegrass (Lolium multiflorum); experiment: Test B pre-/postemergence plant response
Outline: (§1)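 Evaluation is visual, about 10 days after application, rating injury from 0 (none) to 100 (complete control) relative to untreated controls. Application was a preemergence soil spray on seeded pots or a postemergence spray on one- to two-leaf plants.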

[2] = test system: kochia (Kochia scoparia); experiment: Test B pre-/postemergence plant response
Outline: as §1

[3] = test system: ragweed (common ragweed, Ambrosia elatior); experiment: Test B pre-/postemergence plant response
Outline: as §1

[4] = test system: Italian ryegrass (Lolium multiflorum); experiment: Test D pre-/postemergence plant response
Outline: (§2)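 Visual rating, 0–100 scale (0 = no effect, 100 = complete control), versus untreated controls 13 to 15 days after treatment in greenhouse. Preemergence: seeds in loam/sand soil. Postemergence: 2 to 18 cm plants, 1- to 4-leaf stage, peat-based medium. Compounds formulated in non-phytotoxic solvent plus surfactant.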

[5] = test system: barnyardgrass (Echinochloa crus-galli); experiment: Test D pre-/postemergence plant response
Outline: as §2

[6] = test system: blackgrass (Alopecurus myosuroides); experiment: Test D pre-/postemergence plant response
Outline: as §2

[7] = test system: corn (Zea mays); experiment: Test D pre-/postemergence plant response
Outline: as §2

[8] = test system: galium (catchweed bedstraw, Galium aparine); experiment: Test D pre-/postemergence plant response
Outline: as §2

[9] = test system: giant foxtail (Setaria faberii); experiment: Test D pre-/postemergence plant response
Outline: as §2

[10] = test system: large (Lg) crabgrass (Digitaria sanguinalis); experiment: Test D pre-/postemergence plant response
Outline: as §2

[11] = test system: oilseed rape (Brassica napus); experiment: Test D pre-/postemergence plant response
Outline: as §2

[12] = test system: pigweed (Amaranthus retroflexus); experiment: Test D pre-/postemergence plant response
Outline: as §2

[13] = test system: ragweed (common ragweed, Ambrosia elatior); experiment: Test D pre-/postemergence plant response
Outline: as §2

[14] = test system: yellow nutsedge (Cyperus esculentus); experiment: Test D pre-/postemergence plant response
Outline: as §2

[15] = 31 g ai/ha, Preemergence, 0 to 100 scale where 0 is no effect and 100 is complete control
[16] = 125 g ai/ha, postemergence, 0 to 100 scale, 0 no effect, 100 complete control
[17] = Preemergence, 125 g ai/ha, 0 to 100 scale (0 no effect, 100 complete control)
[18] = Postemergence, 31 g ai/ha, scale 0 to 100 (0 no effect, 100 complete control)
[19] = Postemergence, 62 g ai/ha, scale 0 to 100, 0 no effect, 100 complete control
[20] = Postemergence, 125 g ai/ha, scale 0 to 100, 0 no effect, 100 complete control
[21] = Preemergence, 16 g ai/ha, scale 0 to 100 (0 no effect, 100 complete control)
[22] = Preemergence, 31 g ai/ha, scale 0 to 100 (0 no effect, 100 complete control)
[23] = Preemergence, 62 g ai/ha, scale 0 to 100 (0 no effect, 100 complete control)
[24] = Postemergence, 16 g ai/ha, scale 0 to 100 (0 no effect, 100 complete control)

FC(F)Oc1cccc(Oc2ncc(Cl)cn2)c1-c1cc(C(F)F)on1 [Compound 131]
Plant response rating, Ryegrass, Italian [1, 15]: 20 | Plant response rating, Ryegrass, Italian [1, 16]: 70 | Ryegrass, Italian plant response rating [1, 17]: 90 | Plant response rating, Kochia [2, 15]: 0 | Plant response rating, Kochia [2, 16]: 70 | Kochia plant response rating [2, 17]: 10 | Plant response rating, Ragweed [3, 15]: 20 | Plant response rating, Ragweed [3, 16]: 70 | Ragweed plant response rating [3, 17]: 60 | Ryegrass, Italian plant response rating [4, 18]: 5 | Plant response rating, Ryegrass, Italian [4, 19]: 5 | Plant response rating, Ryegrass, Italian [4, 20]: 25 | Plant response rating (scale 0 to 100), Ryegrass, Italian ([4]; Preemergence, 125 g ai/ha): 90 | Plant response rating, Ryegrass, Italian [4, 21]: 0 | Plant response rating, Ryegrass, Italian [4, 22]: 20 | Plant response rating, Ryegrass, Italian [4, 23]: 35 | Barnyardgrass plant response rating [5, 24]: 10 | Barnyardgrass plant response rating [5, 18]: 10 | Plant response rating, Barnyardgrass [5, 19]: 10 | Plant response rating, Barnyardgrass [5, 20]: 20 | Plant response rating (scale 0 to 100), Barnyardgrass ([5]; Preemergence, 125 g ai/ha): 100 | Plant response rating, Barnyardgrass [5, 21]: 30 | Plant response rating, Barnyardgrass [5, 22]: 75 | Plant response rating, Barnyardgrass [5, 23]: 85 | Blackgrass plant response rating [6, 24]: 5 | Blackgrass plant response rating [6, 18]: 5 | Plant response rating, Blackgrass [6, 19]: 5 | Plant response rating, Blackgrass [6, 20]: 30 | Plant response rating (scale 0 to 100), Blackgrass ([6]; Preemergence, 125 g ai/ha): 95 | Plant response rating, Blackgrass [6, 21]: 5 | Plant response rating, Blackgrass [6, 22]: 80 | Plant response rating, Blackgrass [6, 23]: 90 | Corn plant response rating [7, 24]: 5 | Corn plant response rating [7, 18]: 5 | Plant response rating, Corn [7, 19]: 10 | Plant response rating, Corn [7, 20]: 25 | Plant response rating (scale 0 to 100), Corn ([7]; Preemergence, 125 g ai/ha): 65 | Plant response rating, Corn [7, 21]: 0 | Plant response rating, Corn [7, 22]: 10 | Plant response rating, Corn [7, 23]: 60 | Galium plant response rating [8, 18]: 85 | Plant response rating, Galium [8, 19]: 95 | Plant response rating, Galium [8, 20]: 95 | Plant response rating (scale 0 to 100), Galium ([8]; Preemergence, 125 g ai/ha): 90 | Plant response rating, Galium [8, 21]: 95 | Plant response rating, Galium [8, 22]: 30 | Plant response rating, Galium [8, 23]: 90 | Foxtail, Giant plant response rating [9, 24]: 10 | Foxtail, Giant plant response rating [9, 18]: 10 | Plant response rating, Foxtail, Giant [9, 19]: 15 | Plant response rating, Foxtail, Giant [9, 20]: 15 | Plant response rating (scale 0 to 100), Foxtail, Giant ([9]; Preemergence, 125 g ai/ha): 100 | Plant response rating, Foxtail, Giant [9, 21]: 80 | Plant response rating, Foxtail, Giant [9, 22]: 100 | Plant response rating, Foxtail, Giant [9, 23]: 100 | Crabgrass, Large plant response rating [10, 24]: 5 | Crabgrass, Large plant response rating [10, 18]: 5 | Plant response rating, Crabgrass, Large [10, 19]: 10 | Plant response rating, Crabgrass, Large [10, 20]: 20 | Plant response rating (scale 0 to 100), Crabgrass, Large ([10]; Preemergence, 125 g ai/ha): 100 | Plant response rating, Crabgrass, Large [10, 21]: 98 | Plant response rating, Crabgrass, Large [10, 22]: 100 | Plant response rating, Crabgrass, Large [10, 23]: 100 | Oilseed Rape plant response rating [11, 18]: 45 | Plant response rating, Oilseed Rape [11, 19]: 80 | Plant response rating, Oilseed Rape [11, 20]: 85 | Plant response rating (scale 0 to 100), Oilseed Rape ([11]; Preemergence, 125 g ai/ha): 95 | Plant response rating, Oilseed Rape [11, 21]: 10 | Plant response rating, Oilseed Rape [11, 22]: 50 | Plant response rating, Oilseed Rape [11, 23]: 85 | Pigweed plant response rating [12, 18]: 98 | Plant response rating, Pigweed [12, 19]: 98 | Plant response rating, Pigweed [12, 20]: 100 | Plant response rating (scale 0 to 100), Pigweed ([12]; Preemergence, 125 g ai/ha): 100 | Plant response rating, Pigweed [12, 21]: 100 | Plant response rating, Pigweed [12, 22]: 100 | Plant response rating, Pigweed [12, 23]: 100 | Ragweed plant response rating [13, 18]: 45 | Plant response rating, Ragweed [13, 19]: 65 | Plant response rating, Ragweed [13, 20]: 75 | Plant response rating (scale 0 to 100), Ragweed ([13]; Preemergence, 125 g ai/ha): 25 | Plant response rating, Ragweed [13, 21]: 0 | Plant response rating, Ragweed [13, 22]: 0 | Plant response rating, Ragweed [13, 23]: 0 | Nutsedge, Yellow plant response rating [14, 18]: 0 | Plant response rating, Nutsedge, Yellow [14, 19]: 5 | Plant response rating, Nutsedge, Yellow [14, 20]: 10 | Plant response rating (scale 0 to 100), Nutsedge, Yellow ([14]; Preemergence, 125 g ai/ha): 70 | Plant response rating, Nutsedge, Yellow [14, 21]: 0 | Plant response rating, Nutsedge, Yellow [14, 22]: 5 | Plant response rating, Nutsedge, Yellow [14, 23]: 5
